Test results published in patent US4486445A, “Justicidin insecticidal and antiviral compounds” (E. I. Du Pont de Nemours and Company, priority 1983, dated 1984).
In brackets after ≈: the same amount, converted by molar mass. Read-outs that look alike come from different tables or passages of the source.

Columns and labels:
Aedes egypti larvae = test: insecticidal activity against larvae of A. egypti in water; type: in vivo; conditions: larvae of A. egypti in H2O; for LC50: Aedes, read-out: EC50 (effective kill concentration for 50% of the experimental larvae)
Protocol: The insecticidal activity of the crude acetone/water extracts of Justicia extensa, prepared according to the isolation procedure described previously, was tested against laboratory cultures of the mosquito species Aedes egypti (Linnaeus) and southern army worm (SAW) Spodoptera eridania (Cramer). Extracts of leaves, branches and roots were employed in each test.
In tests against larvae of A. egypti, 10 mg of the crude plant extract was thoroughly dispersed in 20 ml of water in a test tube to which 10 first instar larvae were added.

[1] = system: Human Rhino Virus (HRV-2); test: inhibition of HRV-2 in HeLa cells; type: cell-based, Human rhinovirus HRV-2; conditions: Rhinovirus A; for inhibition at 0.016 µg/mL: HRV2, 0.016 μg/ml; for inhibition at 0.08 µg/mL: HRV2, 0.08 μg/ml; for inhibition at 0.4 µg/mL: HRV2, 0.4 μg/ml; for inhibition at 2 µg/mL: HRV2, 2 μg/ml; for inhibition at 10 µg/mL: HRV2, 10 μg/ml
Herpes Type 1-strain VR3 = test: plaque formation inhibition, Herpes Type 1 in HeLa cells; type: cell-based; conditions: for antiviral activity against Herpes Type 1: HeLa cells
[2] = system: Herpes Type 2-Alabama strain; test: plaque formation inhibition, Herpes Type 2 in HeLa cells; type: cell-based; conditions: for antiviral activity against Herpes Type 2: HeLa cells
HeLa cells = type: cell-based
A/JAX inbred mice = test: in vivo oral toxicity in A/JAX inbred mice; conditions: orally, 200 and 100 mg/kg
Protocol: In vivo toxicity studies of natural and synthetic Justicidin P produced mixed results. […] However, natural and synthetic Justicidin P were toxic to A/JAX inbred mice when administered orally at dosages of 200 and 100 mg/kg.

fish = conditions: in vivo, cited from earlier work
[3] = system: mosquito larvae of the species Culex pipiens pallens; conditions: mixtures with pyrethrin or allethrin; cited from earlier work
IMR-90 cells = conditions: substantially similar test conditions

## COc1cc2c(OC)c3c(c(-c4ccc5c(c4)OCO5)c2cc1OC)C(=O)OC3F (racemic) [Compound 14, (±)-9-(1,3-Benzodioxol-5-yl)-3-fluoro-4,6,7-trimethoxynaphtho[2,3-c]furan-1(3H)-one]
Aedes egypti larvae
  LC50: 0.7 µg/mL (≈ 1.7 µM)
[1]; 400 PFU
  inhibition at 0.016 µg/mL: 0%
  inhibition at 0.08 µg/mL: 0%
  inhibition at 0.4 µg/mL: 0%
  inhibition at 2 µg/mL: 21%
  inhibition at 10 µg/mL: 79%

## COc1cc2c(OC)c3c(c(-c4ccc5c(c4)OCO5)c2cc1OC)C(=O)OC3OC(C)=O (racemic) [Compound 15]
Aedes egypti larvae
  LC50: 1 µg/mL (≈ 2.21 µM)
[1]; 400 PFU
  inhibition at 0.016 µg/mL: 0%
  inhibition at 0.08 µg/mL: 0%
  inhibition at 0.4 µg/mL: 0%
  inhibition at 2 µg/mL: 0%
  inhibition at 10 µg/mL: 72%

## COc1cc2c(OC)c3c(c(-c4ccc5c(c4)OCO5)c2cc1OC)C(=O)OC3O (racemic) [Compound 16, (±)-9-(1,3-Benzodioxol-5-yl)-3-hydroxy-4,6,7-trimethoxynaphtho[2,3-c]furan-1(3H)-one]
Aedes egypti larvae
  LC50: 10 µg/mL (≈ 24.4 µM)
[1]; 400 PFU
  inhibition at 0.016 µg/mL: 0%
  inhibition at 0.08 µg/mL: 0%
  inhibition at 0.4 µg/mL: 0%
  inhibition at 2 µg/mL: 0%
  inhibition at 10 µg/mL: 98%

## CCCOC1OC(=O)c2c1c(OC)c1cc(OC)c(OC)cc1c2-c1ccc2c(c1)OCO2 (racemic) [Compound 17, (±)-9-(1,3-Benzodioxol-5-yl)-3-propoxy-4,6,7-trimethoxynaphtho[2,3-c]furan-1(3H)-one]
Aedes egypti larvae
  LC50: 0.8 µg/mL (≈ 1.77 µM)
Herpes Type 1-strain VR3; 0.1 μg/ml, HeLa, read-out: plaque formation inhibition against Type 1 (average)
  inhibition at 0.1 µg/mL: 71%
Herpes Type 1-strain VR3
  antiviral activity against Herpes Type 1: demonstrated antiviral activity
[2]; 0.1 μg/ml, HeLa, read-out: plaque formation inhibition against Type 2 (average)
  inhibition at 0.1 µg/mL: 91%
[2]
  antiviral activity against Herpes Type 2: demonstrated antiviral activity
HeLa cells; 1 μg/ml
  cytotoxicity: cytotoxic
[1]; 200 PFU
  inhibition at 0.016 µg/mL: ≥ 100%
  inhibition at 0.08 µg/mL: ≥ 100%
  inhibition at 0.4 µg/mL: ≥ 100%
  inhibition at 2 µg/mL: ≥ 74%

## COc1cc2c(OC)c3c(c(-c4ccc5c(c4)OCO5)c2cc1OC)C(=O)OC3OC (racemic) [Justicidin P (synthetic), (±)-9-(1,3-Benzodioxol-5-yl)-3,4,6,7-tetramethoxynaphtho[2,3-c]furan-1(3H)-one]
Aedes egypti larvae
  LC50: 0.01 µg/mL (≈ 0.0236 µM)
[1]; 400 PFU
  inhibition at 0.016 µg/mL: 0%
  inhibition at 0.08 µg/mL: 0%
  inhibition at 0.4 µg/mL: 0%
  inhibition at 2 µg/mL: 73%
  inhibition at 10 µg/mL: 43%
A/JAX inbred mice
  in vivo toxicity: toxic

## CCCCCCCSC1OC(=O)c2c1c(OC)c1cc(OC)c(OC)cc1c2-c1ccc2c(c1)OCO2 (stereo not drawn) [Compound 18]
Herpes Type 1-strain VR3; 1 μg/ml, HeLa, read-out: inhibition against Type 1
  inhibition at 1 µg/mL: 17%
Herpes Type 1-strain VR3; 4 μg/ml, HeLa, read-out: inhibition against Type 1
  inhibition at 4 µg/mL: 81%
Herpes Type 1-strain VR3
  antiviral activity against Herpes Type 1: demonstrated antiviral activity
[2]; 1 μg/ml, HeLa, read-out: inhibition against Type 2
  inhibition at 1 µg/mL: 16%
[2]; 4 μg/ml, HeLa, read-out: inhibition against Type 2
  inhibition at 4 µg/mL: 77%
[2]
  antiviral activity against Herpes Type 2: demonstrated antiviral activity
HeLa cells; 64 and 16 μg/ml
  cytotoxicity: cytotoxic
[1]; 200 PFU
  inhibition at 0.016 µg/mL: 80%
  inhibition at 0.08 µg/mL: ≥ 100%
  inhibition at 0.4 µg/mL: ≥ 100%

## COc1cc2c(OC)c3c(c(-c4ccc5c(c4)OCO5)c2cc1OC)C(=O)OC3OC(C)C (stereo not drawn) [Compound 19]
Aedes egypti larvae
  LC50: 0.7 µg/mL (≈ 1.55 µM)
HeLa cells; 1, 4, 16 and 64 μg/ml
  cytotoxicity: demonstrated cytotoxic properties
[1]; 200 PFU
  inhibition at 0.016 µg/mL: 100%
  inhibition at 0.08 µg/mL: ≥ 100%
  inhibition at 0.4 µg/mL: 107%
  inhibition at 2 µg/mL: 14%

## CCCCCCCCCCCCOC1OC(=O)c2c1c(OC)c1cc(OC)c(OC)cc1c2-c1ccc2c(c1)OCO2 (stereo not drawn) [Compound 20]
[1]; 200 PFU
  inhibition at 0.016 µg/mL: 0%
  inhibition at 0.08 µg/mL: 0%
  inhibition at 0.4 µg/mL: 10%
  inhibition at 2 µg/mL: 74%
  inhibition at 10 µg/mL: 83%

## COc1cc2c(O)c3c(c(-c4ccc5c(c4)OCO5)c2cc1OC)C(=O)OC3 [Diphyllin, 9-(1,3-Benzodioxol-5-yl)-6,7-dimethoxy-4-hydroxynaphtho[2,3-c]furan-1(3H)-one, reference compound]
Aedes egypti larvae
  EC50 (effective kill concentration for 50% of the experimental larvae): not active

## COc1cc2c(OC)c3c(c(-c4ccc5c(c4)OCO5)c2cc1OC)C(=O)OC3 [Justicidin A, 9-(1,3-Benzodioxol-5-yl)-4,6,7-trimethoxynaphtho[2,3-c]furan-1(3H)-one]
Aedes egypti larvae
  LC50: 10 µg/mL (≈ 25.4 µM)
fish
  piscicidal activity: extraordinary piscicidal activity
fish; listed as justicidins A
  piscicidal activity: active piscicidal components
[3]
  synergistic behavior: synergistic behavior was observed

## COc1cc2cc3c(c(-c4ccc5c(c4)OCO5)c2cc1OC)C(=O)OC3 [Justicidin B]
fish
  piscicidal activity: extraordinary piscicidal activity
fish; listed as B
  piscicidal activity: active piscicidal components
[3]
  synergistic behavior: synergistic behavior was observed

## Nc1nc2c(ncn2COCCO)c(=O)[nH]1 [acyclovir, 9-(2-hydroxy-ethoxymethyl)guanine, reference compound]
Herpes Type 1-strain VR3; HeLa, 8 μg/ml, similar test conditions
  inhibition at 8 µg/mL: 90%
[2]; range between 0.5 μg/ml and 8 μg/ml, similar test conditions
  inhibition of Type 2 plaque formation: 90-99%
[1]; 400 PFU
  inhibition at 0.016 µg/mL: 0%
  inhibition at 0.08 µg/mL: 0%
  inhibition at 0.4 µg/mL: 0%
  inhibition at 2 µg/mL: 0%
  inhibition at 10 µg/mL: 0%
IMR-90 cells
  sensitivity of IMR-90 cells: sensitive
